Data from patent US20190151304A1, “METHODS AND PHARMACEUTICAL COMPOSITIONS FOR THE TREATMENT OF AUTOIMMUNE INFLAMMATORY” (INSERM (INSTITUT NATIONAL DE LA SANTÉ ET DE LA RECHERCJAE …, priority 2016, published 2019).
No end group written: not given here.

How the values were obtained:
EAE mice = assay: Chronic experimental autoimmune encephalomyelitis (EAE) induced with MOG35-55; assay type: in vivo, C57BL/6 mice; conditions: for Histopathological EAE score (spinal cord): 30 days post-immunization; for Regulatory T cell (Treg) proportion in draining lymph nodes: day 30 post-immunization, flow cytometry, versus PBS controls; for Clinical features of EAE (clinical score 0-5): orexin A 100 or 300 μg per mouse for 5 days, IP or retro-orbital, before onset or at moderate EAE score
Method: EAE was induced with 100 μg of MOG35-55 (Myelin Oligodendrocyte Glycoprotein 35-55) as previously described (Proc Natl Acad Sci USA. 106(6):2012-7, 2009) to 9 week old female C57BL/6 wild-type (WT) mice (n=10/group). Panels show clinical signs of EAE scored daily in a blinded fashion for over 30 days on a scale of 0-5 as follows: 0, no detectable clinical signs, 1, waddling gait with limp tail, 2, ataxia with full paralysis of one limb, 3, full paralysis of two limbs, 4, full paralysis of two limbs with important weight loss (>20% of initial weight) and 5, moribund or dead. Then, mice were given:
Panel A, intraperitoneally (IP) either PBS (group PBS IP), 100 μg of orexin A per mouse for 5 days on day 3 (=before the onset, group BOxA100 IP) or at a moderate EAE score (=1,5-2 for group OxA100 IP).
Panel B, intraperitoneally either PBS (group PBS), 100 μg (group OxA100 IP) or 300 μg (group OxA300 IP) of orexin A per mouse for 5 days at a moderate EAE score (=1,5-2).
Panel C, either PBS (group PBS), 300 μg of orexin A per mouse intraperitoneally (group OxA300 IP) or retro-orbitally (RO) (group OxA300 RO) for 5 days at a moderate EAE score (=1,5-2).
The EAE score is shown as mean+/−SEM. *P<0.05 (nonparametric t-test, compared to PBS group).
FIG. 5. […] 30 days post-immunization, mice (from the PBS, OxA300 RO, and OxA300 IP groups of FIG. 2, panel C) were sacrificed and spinal cords were harvested, fixed overnight in 4% paraformaldehyde and stored in 70% ethanol. Spinal cords were then embedded in paraffin and cut in […] section. After haematoxylin/eosin (to distinguish cell infiltration) and luxol fast blue (to label myelin) staining, photography was performed at ×1,25 and ×10 magnifications for the spinal cord sections of PBS, OxA300 RO and OxA300 IP mice. […] Histopathology grading was as follows: 0—normal appearance, 1—some infiltrated cells and low demyelination, 2—2 or 3 infiltrated areas and low demyelination, 3—numerous infiltrated areas and strong demyelination, 4—important cell infiltration throughout the tissue with strong demyelination. *P<0.05 (nonparametric t-test, compared to PBS group).
FIG. 6. […] It was determined 30 days after EAE induction of PBS, OxA300 RO, and OxA300 IP mice (from FIG. 2, panel C) by real time RT-qPCR as previously described (Proc Natl Acad Sci USA. 106(6):2012-7, 2009). *P<0.05 (nonparametric t-test, compared to PBS group).
FIG. 7. […] On day 30 post-immunization, draining lymph nodes were harvested from the naïve, PBS, OxA300 RO, and OxA300 IP groups (FIG. 2, panel C). Assessment by flow cytometry was performed by using the mouse regulatory T cell staining kit: lymph node Tregs were defined as […] and proliferative Tregs as CD4^+CD25^+Foxp3^+Ki67^+ cells.
Histograms represent the mean of the percentage (left) and the total number (right) of Tregs and proliferative Tregs (Ki67^+Tregs) for each group. Bars represent the mean+/−SEM of 5 individual mice. *P<0.05 (non parametric t-test, compared to PBS group).
Therefore, orexin A presents potent intrinsic anti-inflammatory properties, capable of modulating the Th/Treg homeostasis during an auto-immune response as aggressive as in a chronic EAE model.

[1] = test system: cytokines secretion in colon extracts; assay: Cytokine assays in colon extracts of DSS-induced colitis mice; assay type: in vivo; conditions: OxA treatment
Method: FIG. 3: OXA effects on cytokines secretion in DSS-induced colitis mice. Right, Colons of DSS untreated mice (white), DSS treated mice (gray) and DSS treated mice associated to OxA treatment (black) were resected after animal sacrifice. Then, protein extraction was performed by tissue disruption. Cytokines were determined using Cytokine CBA kits (see Material and Methods). Left, after colon resection, RNA were extracted from colonic tissue and qPCR was performed using specific oligonucleotides for IL8 homolog and IL1B.
These observations are confirmed by histologic aspect of colon epithelium (histologic scoring by a GI pathologist). Thus, OxA has probably an anti-inflammatory effect on DSS-induced colitis. To confirm this hypothesis, we have investigated the anti-inflammatory effect of OxA treatment on cytokines secretion in colon extracts from DSS-treated mice. […] In contrast, OxA has no effect on INFγ, IL10, and IL12 cytokine secretion in colon extracts (FIG. 3).
Cytokine assays: Mice were sacrificed and colons were resected. Proteins were extracted from colon by tissue disruption in PBS using Tissue Lyser (Qiagen, Courtaboeuf, France). Various cytokines (see FIG. 3) were determined using Cytokine CBA kits (BD Sciences, Le Pont de Claix, France).

[2] = test system: colon adenocarcinoma HT-29 cells; assay: Apoptosis assay (annexin V-PE binding, Guava nexin kit) in HT-29 cells; assay type: cell-based; conditions: 48 h; orexin-A 1 μM, SB408124 various concentrations
Method: FIG. 13: Effect of orexin-A and SB408124 antagonist on apoptosis in OX1R expressing colon adenocarcinoma cells, HT-29. HT-29 cells were challenged with 1 μM orexin-A or various concentration of SB408124 for 48 h. Apoptosis was measured by determination of annexin V-PE binding, and results are expressed as the percentage of apoptotic cells. Results are means±SE of three experiments. ***P<0.001.
(§1) Cells growth determination and apoptosis assay: HEK-OX1R cells or colon adenocarcinoma HT-29 cells were seeded, grown and maintained at 37° C. in a humidified 5% CO2/air incubator. After 24 hr culture, cells were treated with or without Orexin-A peptide or SB408124 antagonist, previously dissolved in DMSO, to be tested at the concentration indicated in the figure legends. After 48 hr of treatment, adherent cells were harvested by Trip1E (Life Technologies, Saint Aubin, France) and manually counted. Apoptosis was determined using the Guava PCA system and the Guava nexin kit.

HEK-OX1R cells = assay: Cells growth determination, HEK-OX1R cells; assay type: cell-based; conditions: 48 hr; OxA 0.1 μM, SB408124 increasing concentrations
Method: FIG. 12: Determination of the inhibition of cellular growth of HEK-OX1R cells and colon adenocarcinoma cells (HT-29) induced by 0.1 μM of OxA or various concentrations of SB408124 antagonist. HEK-OX1R cells (black column) and HT-29 cells (white column) were incubated with 0.1 μM of OxA and indicated increasing concentration of SB408124, and cells were counted after 48 hr incubation. Results are expressed as the percentage of total viable cells.
as §1

[3] = 30 days after EAE induction, RT-qPCR, OxA 300 μg RO or IP

For “OxA: neuropeptide, endogenous ligand of OX1R and OX2R, with two disulphide bridges (QPLPDCCRQKTCSCRLYELLHGAGNHAAGILTL; disulfide (positions not given here); ends not checked; also: two disulphide bridges, pairing not given here; UniProt O43612 34-66, looked up)”, the “Th1-specific (IFNγ) cytokine gene expression in the brain” value (EAE mice; [3]) was “efficiently suppresses”, the “Th17-specific (IL-17) cytokine gene expression in the brain” value (EAE mice; [3]) was “efficiently suppresses” and the “Histopathological EAE score (spinal cord)” value (EAE mice; OxA 300 μg RO or IP, listed as Orexin A) was “significantly decreases”. The “Histopathological EAE score (spinal cord)” value (EAE mice; OxA 300 μg RO or IP, listed as orexin A) was “drastic reduction”, the “Regulatory T cell (Treg) proportion in draining lymph nodes” value (EAE mice; listed as Orexin A) was “increased” and the “Regulatory T cell (Treg) proportion in draining lymph nodes” value (EAE mice; listed as orexin A) was “increase”. For the same substance, the “Clinical features of EAE (clinical score 0-5)” value (EAE mice; listed as Orexin A) was “dramatically alleviate”, the “Clinical features of EAE (clinical score 0-5)” value (EAE mice; listed as orexin A) was “significantly ameliorated” and the “Th1/Th17 pro-inflammatory responses in the CNS tissues” value (EAE mice; orexin A treated-mice versus PBS controls) was “drastic reduction”. The “IL6 secretion in colon extracts” value [1] was “reduces”, the “IL10 secretion in colon extracts” value [1] was “no effect” and the “IL12 secretion in colon extracts” value [1] was “no effect”. The “INFγ secretion in colon extracts” value [1] was “no effect”, the “TNFα secretion in colon extracts” value [1] was “reduces” and the “IL1B in colon extracts” value ([1]; qPCR per FIG. 3) was “reduces”. The “IL8 homolog in colon extracts” value ([1]; qPCR per FIG. 3) was “reduces”, the “Apoptosis in HT-29 cells” value [2] was “induced an apoptotic effect” and the “Inhibition of cellular growth of HEK-OX1R cells” value (HEK-OX1R cells) was “strong inhibition”.
